In brackets after ≈: the same amount, converted by molar mass. Like-named read-outs stand apart in the source and are kept apart here.
Key:
[1] = Kinetic solubility in phosphate-buffered saline, pH 7.4; assay type: physicochemical; conditions: for solubility kinetic at 2 h / solubility at 2 h: 25 °C, pH 7.4, aqueous buffer, kinetic from dmso stock; for solubility at 2 h: PBS solubility
Experimental: Analysis of Aqueous Solubility […]
compound (Ondansetron) were assessed for kinetic solubility in phosphate -buffered saline, pH 7.4.
Phosphate buffered saline, pH 7.4 (Sigma -Aldrich, USA; Cat #P3813) […]
MultiScreen HTS 96 Well Filter Plates (Millipore, Ireland; Cat # MSSLBPC10) […]
Matrix Multichannel Electronic Pipette 2-125 μL, 5-250 μL, 15-1250 μL (Thermo Scientific, USA; […]
Vacuum pump (Millipore, USA; Model # XX5500000)
The measurements were performed using SpectraMax Plus reader in UV -Vis mode. Acquisition and […]
The measurements were performed using SpectraMax Paradigm reader in UV-Vis mode.
Acquisition and analysis of the data were performed using SoftMax Pro v.5.4 (Molecular Devices) […]
Kinetic solubility assay was performed according to the Enamine’s aqueous solubility SOP. Briefly, using a 20 mM stock solution of the compound in 100% DMSO dilutions were prepared to a theoretical concentration of 400 μM in duplicates in phosphate-buffered saline pH 7.4 […]
compound dilutions in PBS were further allowed to equilibrate at 25 °C on a thermostatic shaker for two hours and then filtered through HTS filter plates using a vacuum manifold. The filtrates of test compounds were diluted 2-fold with acetonitrile with 2% DMSO before measuring.
In parallel, compound dilutions in 50% acetonitrile/PBS were prepared to theoretical concentrations […]
calibration curves. Ondansetron was used as reference compound to control proper assay performance. 200 μl of each sample was transferred to 96-well plate and measured in 230-550 nm range with 5 nm step. The effective range of this assay is approximately 2-400 μM and the […]
The concentrations of compounds in PBS filtrate are calculated using a dedicated Microsoft Excel calculation script. Proper absorbance wavelengths for calculations are selected for each compound manually based on absorbance maximums (absolute absorbance unit values for the minimum and maximum concentration points within the 0 – 3 OD range). Each final dataset is visually evaluated by the operator, and goodness of fit (R2) is calculated for each calibration curve. […]
samples were diluted 2-fold with acetonitrile containing internal standard and were analyzed using the HPLC system coupled with a tandem mass spectrometer. The effective range of this assay is […]

physchem = conditions: pH 7.4, LogD, pH 7.4
in vitro = conditions: both, human
[2] = system: Aspergillus niger (strain VURV-F 822); experiment: Antifungal disk diffusion method; assay type: cell-based
Experimental: Antifungal activity of the synthetic compounds using disk diffusion methods The compounds were tested for plant pathogens Aspergillus niger (strain VURV-F 822), which was received from Culture collection of microorganisms of Crop Research Institute (Prague, Czech […]
The synthetic compounds' antifungal activity was evaluated using a disk diffusion assay for testing filamentous fungi (CLSI M51-A) and broth microdilution antifungal susceptibility testing (EUCAST E.DEF 7.3.1; CLSI M38-A2)
[CLSI M51-A. Method for Antifungal Disk Diffusion Susceptibility Testing of Nondermatophyte Filamentous Fungi; Approved Guideline.CLSI document M51-A. Wayne, PA:
Clinical and Laboratory Standards Institute; 2010. This method is standardized for Altenaria, Aspergillus, Bipolaris, Fusarium, order Mucorales, etc.]
[CLSI M38-A2. 2008. Reference method for broth dilution antifungal susceptibility testing of filamentous fungi, 2nd ed Approved standard M38 -A2 Clinical and Laboratory Standards Institute, […]
Antifungal disk diffusion method
The solutions of fungicides and their analogues were diluted in dimethyl sulfoxide (DMSO) to […]
mg/mL for each test component. Sterile paper disks (ASPECT, Ukraine) were soaked with 10 μl of a solution of the appropriate fungicide from the highest concentration to the lowest.
The fungal strains were cultured on Petri dishes with Saburo dextrose agar (Condalab, Spain) and incubated at 25 °C for 5 days. Sterile Dulbecco's phosphate -buffered saline (DPBS) with 0,1 % Tween 20 was used to cover colonies of fungus for obtained conidia l suspension. Suspension of conidia was adjusted to inoculums 2×10^5 conidia/mL by sterile DPBS.
For antifungal disk diffusion test we used square Petri dishes (FALCON A Corning Brand, USA). The conidial suspension (0.5 mL) was added to Petri dishes with Saburo dextrose agar. The suspension was evenly distributed over the surface of the nutrient medium with a glass spatula.
After the surface of the inoculated medium was dry, the disks with different concentrations of testing compounds were added to the Petri dishes. Each compound was tested in triplicate at different concentrations. Growth control was a disk with 10 μl of DMSO, which was used for test […]
Petri dishes incubated at 25 °C for 72 h. The test compounds at known concentrati on into contact with an inoculated medium then exert a growth-inhibiting effect then a clear zone (the zone of […]
inhibition) appears around the test product. The diameter of a clear zone around the well is […]
If the fungal strain is susceptible to the antifungal agent, then a zone of inhibition appears on the agar plate. If it is resistant to the test compound, then no zone is evident. The size of the zone of inhibition is usually related to the level of antifungal activity present in the compound – a larger […]
The growth rate of all strains for each concentration of test compounds was determined visually and compared with the growth of control.
Broth microdilution antifungal susceptibility testing
A 96-well CELLSTAR plate (sterile, flat-bottomed, polystyrene, transparent) was used to determine MIC by broth microdilution method. Also, dabble straight RPMI-1640 medium with 2% glucose (2x RPMI 2%G) was used for this method. Spore suspension for plate inoculation was prepared according to the method described above for the disc diffusion method.
The each well in the plate contained 49 μl of medium (2x RPMI 2%G), 50 μl of inoculum (prepared in DPBS) and 1 μl of the stock solution of the test substance. Positive control wells contained 50 μl medium and 50 μl inoculum, and sterile control wells contained 50 μl medium and […]
To determine the MIC by the microdilution method, a series of stock solutions of fungicides and their analogues in DMSO with the following concentrations were prepared: 3.2 mg/mL, 1.6 mg/mL, […]
1 μl of the stock solutions of the test substances were added to each well to obtain the following […]
Immediately after adding all the components to the plates, the optical density was measured at […]

[3] = microsomes, pH 7.4, % Remaining, Mean of 2
[4] = Table S5, injection 1, octanol/PBS pH 7.4
[5] = Table S5, injection 2, octanol/PBS pH 7.4
[6] = Table S5, injection 3, octanol/PBS pH 7.4

Row | solubility kinetic at 2 h [1] [µM] | logD at 1 h (physchem) | D [4] | D [5] | D [6] | SMILES | solubility at 2 h ([1]; pH 7.4, Incubation 1) [µM] | solubility at 2 h ([1]; pH 7.4, Incubation 2) [µM] | solubility at 2 h ([1]; pH 7.4, Mean) [µM] | further results
1 | 5 (≈ 2.49 µg/mL) | 4.3 | 1.98E+04 | 2.11E+04 | 1.99E+04 | Cc1nc2c([nH]1)-c1ccccc1N(C(=O)c1ccc(NC(=O)c3ccccc3-c3ccccc3)cc1)CC2 [Conivaptan, conivaptan] | 4 (≈ 1.99 µg/mL) | 7 (≈ 3.49 µg/mL) | 5 (≈ 2.49 µg/mL) | microsomal CLint at 2 μM (in vitro; microsomes, pH 7.4): 31 µL/min/mg; remaining at 40 min, 2 µM (in vitro; microsomes, pH 7.4, % Remaining without cofactor, Mean of 2): 101%; remaining at 25 min, 2 µM (in vitro; [3]): 67%; remaining at 40 min, 2 µM (in vitro; [3]): 60%; half-life at 2 µM (in vitro; microsomes, pH 7.4, t1/2): 54.4 min; k el at 2 µM (in vitro; pH 7.4, kel): 0.000217 s⁻¹
2 | 25 (≈ 9.53 µg/mL) | – | 3.37E+03 | 2.99E+03 | 3.24E+03 | Cn1cc(C(=O)Nc2ccccc2-c2cc(F)c(F)c(F)c2)c(C(F)F)n1 [Fluxapyroxad, fluxapyroxad] | – | – | – | zone of inhibition at 4 µg/mL ([2]; Concentration 0.004 mg/mL, 0 = absence of antifungal activity, Boscalid, Fluxapyroxad, Bixafen marked st, read-out: Diameter of inhibition zone): 8 ± 2 mm; zone of inhibition at 8 µg/mL ([2]; Concentration 0.008 mg/mL, 0 = absence of antifungal activity, read-out: Diameter of inhibition zone): 11.8 ± 1.25 mm; zone of inhibition at 16 µg/mL ([2]; Concentration 0.016 mg/mL, 0 = absence of antifungal activity, read-out: Diameter of inhibition zone): 14.5 ± 0.5 mm; zone of inhibition at 30 µg/mL ([2]; Concentration 0.03 mg/mL, 0 = absence of antifungal activity, (±)-29 marked st, read-out: Diameter of inhibition zone): 18.2 ± 0.4 mm; zone of inhibition at 60 µg/mL ([2]; Concentration 0.06 mg/mL, 0 = absence of antifungal activity, Fluxapyroxad, Bixafen, (±)-29 marked st, read-out: Diameter of inhibition zone): 22.2 ± 1.25 mm; zone of inhibition at 120 µg/mL ([2]; Concentration 0.12 mg/mL, (±)-28 marked st (static growth), read-out: Diameter of inhibition zone): 25.2 ± 1.5 mm; zone of inhibition at 250 µg/mL ([2]; Concentration 0.25 mg/mL, (±)-28 marked st (static growth, secondary growth of mycelium), read-out: Diameter of inhibition zone): 30 ± 0.5 mm; zone of inhibition at 500 µg/mL ([2]; Concentration 0.5 mg/mL, 10 μl per disk, read-out: Diameter of inhibition zone): 34.5 ± 0.75 mm; zone of inhibition at 1000 µg/mL ([2]; Concentration 1 mg/mL, 10 μl per disk, read-out: Diameter of inhibition zone): 39.2 ± 2.25 mm; zone of inhibition at 2000 µg/mL ([2]; Concentration 2 mg/mL, 10 μl per disk, read-out: Diameter of inhibition zone): 40.8 ± 1.6 mm; MIC ([2]; disk diffusion, small zones of inhibition with secondary mycelial growth, read-out: minimum inhibitory concentration): 4 µg/mL (≈ 10.5 µM)
3 | 3 (≈ 2.08 µg/mL) | – | 5.98E+08 | 3.42E+05 | 6.79E+04 | O=C(NC1CCN(CCCCC2(C(=O)NCC(F)(F)F)c3ccccc3-c3ccccc32)CC1)c1ccccc1-c1ccc(C(F)(F)F)cc1 [Lomitapide, lomitapide] | – | – | – | –
4 | – | 2.82 | – | – | – | COC(=O)Nc1nc2ccc(C(=O)c3ccccc3)cc2[nH]1 [Mebendazole] | – | – | – | –
5 | – | – | – | – | – | Cc1nccn1CC1CCc2c(c3ccccc3n2C)C1=O (stereo not drawn) [Ondansetron, reference compound] | 126 (≈ 37 µg/mL) | 126 (≈ 37 µg/mL) | 126 (≈ 37 µg/mL) | PBS solubility, pH 7.4, Incubation 1 ([1]; Table S1, 1st batch): 121 µM; PBS solubility, pH 7.4, Incubation 2 ([1]; Table S1, 1st batch): 119 µM
